Calls of active or inactive are those of the source. The calls are words filed in the database; no cut-off is given here.
Experiments:
MDA-MB-231 [1] = test: Cell cycle arrest in human MDA-MB-231 cells assessed as S phase cells at 20 uM incubated for 24 hrs by PI staining based flow cytometric analysis (reference value: 28.7%); format: functional
MDA-MB-231 [2] = test: Induction of apoptosis in human MDA-MB-231 cells assessed as viable cells at 2.5 uM incubated for 48 hrs by Annexin V-FITC/PI staining based flow cytometric analysis (reference value: 95.10%); format: functional; settings: read-out: Activity
MDA-MB-231 [3] = test: Induction of autophagy in human MDA-MB-231 cells assessed as increase in beclin-1 expression level incubated for 48 hrs by Western blot analysis; format: functional, cell-based; settings: dose 5-20 µM
MDA-MB-231 [4] = test: Cell cycle arrest in human MDA-MB-231 cells assessed as G1 phase cells at 10 uM incubated for 48 hrs by PI staining based flow cytometric analysis (reference value: 76.7%); format: functional
MDA-MB-231 [5] = test: Antimigratory activity in human MDA-MB-231 cells assessed as reduction in migration ability incubated for 24 hrs by wound healing assay; format: functional, cell-based; settings: dose 2.5-10 µM
MDA-MB-231 [6] = test: Induction of autophagy in human MDA-MB-231 cells assessed as increase in LC3BII expression level incubated for 48 hrs by Western blot analysis; format: functional, cell-based
MDA-MB-231 [7] = test: Induction of apoptosis in human MDA-MB-231 cells assessed as early apoptotic cells at 5 uM incubated for 48 hrs by Annexin V-FITC/PI staining based flow cytometric analysis (reference value: 2.25 %); format: functional
MDA-MB-231 [8] = test: Induction of apoptosis in human MDA-MB-231 cells assessed as necrotic cells at 10 uM incubated for 48 hrs by Annexin V-FITC/PI staining based flow cytometric analysis (reference value: 1.63%); format: functional
[9] = Toxicity in female BALB/C mouse implanted with mouse 4T1 cells assessed as effect on neutrophils at 20 to 50 mg/kg, po administered every two days for 21 days by routine blood analysis; format: organism-based; settings: in vivo, 504 h, dose 20-50 mg/kg, time 21 day
[10] = Toxicity in female BALB/C mouse implanted with mouse 4T1 cells assessed as effect on neutrophils at 20 to 50 mg/kg, iv administered every two days for 21 days by routine blood analysis; format: organism-based; settings: in vivo, 504 h, dose 20-50 mg/kg, time 21 day
MDA-MB-231 [11] = test: Induction of apoptosis in human MDA-MB-231 cells assessed as viable cells at 20 uM incubated for 48 hrs by Annexin V-FITC/PI staining based flow cytometric analysis (reference value: 95.10%); format: functional; settings: read-out: Activity
[12] = Toxicity in female BALB/C mouse implanted with mouse 4T1 cells assessed as change in RBC level at 20 to 50 mg/kg, po administered every two days for 21 days by routine blood analysis; format: organism-based; settings: in vivo, 504 h, dose 20-50 mg/kg, time 21 day
MDA-MB-231 [13] = test: Induction of apoptosis in human MDA-MB-231 cells assessed as late apoptotic cells at 10 uM incubated for 48 hrs by Annexin V-FITC/PI staining based flow cytometric analysis (reference value: 1.06%); format: functional
4T1 [14] = test: Antitumor activity against mouse 4T1 cells implanted in female BALB/C mouse assessed as inhibition of tumor weight at 20 mg/kg, po administered every two days for 21 days relative to control; format: functional, organism-based; settings: time 21.0 day
[15] = Toxicity in female BALB/C mouse implanted with mouse 4T1 cells assessed as change in number of platelets at 20 to 50 mg/kg, iv administered every two days for 21 days by routine blood analysis; format: organism-based; settings: in vivo, 504 h, dose 20-50 mg/kg, time 21 day
MDA-MB-468 = test: Antiproliferative activity against human MDA-MB-468 cells assessed as reduction in cell viability incubated for 96 hrs by MTT assay; settings: MDA-MB-468, 96 h
4T1 [16] = test: Antitumor activity against mouse 4T1 cells implanted in female BALB/C mouse assessed as inhibition of tumor weight at 20 mg/kg, iv administered every two days for 21 days relative to control; format: functional, organism-based; settings: time 21.0 day
[17] = Toxicity in female BALB/C mouse implanted with mouse 4T1 cells assessed as change in serum CK level at 20 to 50 mg/kg, po administered every two days for 21 days; format: organism-based; settings: in vivo, 504 h, dose 20-50 mg/kg, time 21 day
MDA-MB-231 [18] = test: Induction of apoptosis in human MDA-MB-231 cells assessed as early apoptotic cells at 20 uM incubated for 48 hrs by Annexin V-FITC/PI staining based flow cytometric analysis (reference value: 2.25 %); format: functional
[19] = Toxicity in female BALB/C mouse implanted with mouse 4T1 cells assessed as change in number of platelets at 20 to 50 mg/kg, po administered every two days for 21 days by routine blood analysis; format: organism-based; settings: in vivo, 504 h, dose 20-50 mg/kg, time 21 day

CCC(=O)NC(n1cnc2c(Nc3cc(OC)c(OC)c(OC)c3)nc(N)nc21)C(Cl)(Cl)Cl (stereo not given)
Activity (MDA-MB-231 [1]): 27.6% | viability at 2.5 µM (MDA-MB-231 [2]): 95.7% | Activity (MDA-MB-231 [3]): Dose-Dependent Effect | Activity (MDA-MB-231 [4]): 77.5% | Activity (MDA-MB-231 [5]): Dose-Dependent Effect | Activity (MDA-MB-231 [6]): Dose-Dependent Effect | Activity (MDA-MB-231 [7]): 4.37% | Activity (MDA-MB-231 [8]): 1.14% | Activity [9]: Non-Toxic | Activity [10]: Non-Toxic | viability at 20 µM (MDA-MB-231 [11]): 91.7% | Activity [12]: Non-Toxic | Activity (MDA-MB-231 [13]): 2.04% | Activity (4T1 [14]): inactive | Activity [15]: Non-Toxic | IC50 (MDA-MB-468): 7.24 µM | Activity (4T1 [16]): inactive | Activity [17]: Non-Toxic | Activity (MDA-MB-231 [18]): 5.41% | Activity [19]: Non-Toxic

Reference: ChEMBL document CHEMBL5505975, “Design, synthesis and biological evaluation of CDC20 inhibitors for treatment of triple-negative breast cancer” (Eur J Med Chem, 2024)
